Measurements reported in publication PMC8877008, “Synthesis and Structure–Activity Relationship Studies of Benzimidazole-4,7-dione-Based P2X3 Receptor Antagonists as Novel Anti-Nociceptive Agents” (Molecules, 2022).

Tests used:
CIPN rats = assay: Antiallodynic effect, cisplatin chemotherapy-induced peripheral neuropathy (CIPN) model, von Frey; assay type: in vivo, male Sprague-Dawley rats; details: intravenous 12 mg/kg, von Frey filaments, five rats
Excerpt: (§1) The experimental protocol (CNUHIACUC-20039) was approved by the Institutional Animal Care and Use Committee of Chonnam National University Hospital. Animal models of neuropathic pain (NP) were constructed by spinal nerve ligation (SNL) or chemotherapeutics injection (chemotherapy-induced peripheral neuropathy, CIPN) in male Sprague-Dawley rats (weight, 150–180 g). Briefly, under sevoflurane anesthesia, the left L5 and L6 spinal nerves near the vertebral column were separated and tightly ligated using 6-0 silk. Cisplatin was administered intraperitoneally at 2 mg/kg once daily for 4 days. The paw withdrawal threshold (PWT) to mechanical stimuli was measured using calibrated 0.41–15.2 g von Frey filaments (Stoelting, Wood Dale, IL, USA), as described previously. […] The antiallodynic effects of the intravenous vehicle and LDD4692 (3mg/rat) were evaluated and expressed as the percentage of the maximal possible effect (% MPE). % MPE = [(post drug PWT − post injured baseline PWT)/(cutoff PWT − post injured baseline PWT)] × 100
(§2) For the analysis of antagonistic activities, all data were calculated by Origin Pro 9.1 software provided by Originlab and the fitting of graphs was proceeded by the growth/sigmoidal and hill1 process within no weights for data selections. For the analysis of the behavioral assessments of pain models, all data are expressed as mean ± SEM. […]

[1] = In vivo pharmacokinetic study in rats; details: male, SD, plasma, 10 mg/kg; oral administration, 10 mpk, rat
Protocol: Experiments were used to determine any changes during in vivo pharmacokinetics, such as absorption, distribution, metabolism, and excretion of compounds, which are correlated with drug efficacy and toxicity. Pharmacokinetic experiments using rats were mainly conducted using 8-week-old SD male rats (Osan, Kyungki-Do, Korea). A tube was inserted into the femoral vein, the intravenous administration group was administered through the tube, and the oral administration group was administered the drug orally using oral gavage (1–2 mL/kg). Blood collection for the drug was performed at fixed times ([…], 0.25, 0.5, 1, 2, 4, 6, 8, and 24 h) from the time when the tube was inserted into the femoral vein. Blood was centrifuged to separate plasma, and plasma and urine samples were pretreated (minimum 0.5 ng/mL and maximum 8000 ng/mL) using an appropriate organic solvent. For sample preparation, the working solution of rat blank plasma was spiked, followed by preparation of plasma samples with solid phase extraction. Next, the concentration of 100 μL eluent was analyzed by LC–MS/MS (Mass spectrometry 4000 Qtrap with HPLC, Agilent 1200, Santa Clara, CA, USA). The noncompartmental pharmacokinetic parameters were calculated from the blood concentration–time data of the drug analyzed using the noncompartmental analysis model of WinNonlin (Pharsight ver 6.4, Princeton, NJ, USA).

CYP 1A2 = target: T1, CYP 1A2 (Homo sapiens, UniProt P05177); assay: CYP450 inhibition 1A2; assay type: in vitro ADME; details: compound 10 μM
T1 sequence (P05177 1-516): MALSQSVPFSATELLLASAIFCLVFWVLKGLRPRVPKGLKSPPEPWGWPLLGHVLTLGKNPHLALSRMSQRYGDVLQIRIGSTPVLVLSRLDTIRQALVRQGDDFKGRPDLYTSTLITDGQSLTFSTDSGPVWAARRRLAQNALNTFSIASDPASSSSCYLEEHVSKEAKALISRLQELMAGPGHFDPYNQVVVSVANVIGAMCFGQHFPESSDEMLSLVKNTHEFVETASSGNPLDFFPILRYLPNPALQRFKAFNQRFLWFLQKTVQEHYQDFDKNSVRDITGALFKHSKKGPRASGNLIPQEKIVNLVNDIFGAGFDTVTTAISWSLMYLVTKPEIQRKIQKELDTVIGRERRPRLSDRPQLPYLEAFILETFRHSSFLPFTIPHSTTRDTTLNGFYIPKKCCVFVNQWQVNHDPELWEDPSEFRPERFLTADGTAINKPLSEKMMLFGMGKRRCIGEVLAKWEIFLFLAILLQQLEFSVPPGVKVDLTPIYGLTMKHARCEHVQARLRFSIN

SNL rats = assay: Antiallodynic effect, spinal nerve ligation (SNL) neuropathic pain model, von Frey; assay type: in vivo, male Sprague-Dawley rats; details: intravenous 12 mg/kg, von Frey filaments, five rats
Excerpt: as §1, §2

[2] = Metabolic stability in microsomal fraction, mouse; assay type: in vitro ADME
CYP 2D6 = CYP 2D6 (Homo sapiens, UniProt P10635); assay: CYP450 inhibition 2D6; assay type: in vitro ADME; details: compound 10 μM
[3] = Metabolic stability in microsomal fraction, rat; assay type: in vitro ADME; details: rat microsomal fraction, read-out: Metabolic Stability (Microsomal Fr.) % remaining after 30 min

CYP 2D6, sequence (P10635 whole entry): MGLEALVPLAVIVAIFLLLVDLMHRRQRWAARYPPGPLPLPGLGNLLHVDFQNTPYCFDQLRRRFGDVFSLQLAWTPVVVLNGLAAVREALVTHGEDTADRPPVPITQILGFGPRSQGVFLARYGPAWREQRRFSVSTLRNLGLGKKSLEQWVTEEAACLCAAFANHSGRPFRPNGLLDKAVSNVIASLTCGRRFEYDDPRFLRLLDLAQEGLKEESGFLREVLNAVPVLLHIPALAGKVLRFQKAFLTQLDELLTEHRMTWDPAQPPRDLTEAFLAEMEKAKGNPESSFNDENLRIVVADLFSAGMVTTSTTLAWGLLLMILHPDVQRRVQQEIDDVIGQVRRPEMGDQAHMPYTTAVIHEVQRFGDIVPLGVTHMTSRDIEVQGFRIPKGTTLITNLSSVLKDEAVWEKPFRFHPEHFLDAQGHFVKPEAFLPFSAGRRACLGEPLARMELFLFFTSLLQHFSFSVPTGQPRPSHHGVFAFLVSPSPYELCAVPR

AUC(0-inf) [1]: 250 ng·h/mL | Cmax [1]: 40 ng/mL | Tmax [1]: 0.33 h | half-life [1]: 7.58 h | CYP450 inhibition 1A2 (CYP 1A2): 6.78% | remaining at 0.5 h ([2]; microsomal fraction, species not given, lowest of human, rat, mouse is mouse, read-out: Metabolic stability, % remaining after 30 min incubation (summary)): > 92% | remaining at 0.5 h ([2]; mouse, mouse microsomal fraction, read-out: Metabolic Stability (Microsomal Fr.) % remaining after 30 min): 92.8% | CYP450 inhibition 2D6 (CYP 2D6): 7.74% | remaining at 0.5 h [3]: > 99%
Compound: O=C1C(NC2CCN(C(=O)c3ccc(F)c(F)c3)CC2)=C(Cl)C(=O)c2[nH]c(C(F)(F)F)nc21 [14h, 6-Chloro-5-((1-(3,4-difluorobenzoyl)piperidin-4-yl)amino)-2-(trifluoromethyl)-1H-benzo[d]imidazole-4,7-dione]
Maximal possible effect (% MPE), antiallodynic (CIPN rats): 78% | Maximal possible effect (% MPE), antiallodynic (SNL rats): 54%
